The source of these data is patent US6399614B1, “1-(N-phenylaminoalkyl)piperazine derivatives substituted at position 2 of the phenyl ring” (Recordati S.A. Chemical and Pharmaceutical Company, priority 1997, dated 2002).

Structures are written as SMILES. Read-outs that look alike come from different tables or passages of the source.

In general, ED50 refers to the dose at which the effect has come halfway, by size or by number of responders. As usually defined, the Ki is a dissociation constant, usually derived from enzyme kinetics or from competition with a known ligand.

Experiment [1] relates to rhythmic bladder voiding contractions. The experiment can be described thus: Volume-induced rhythmic bladder voiding contractions in anaesthetized rats. Type of experiment: in vivo, rat. To be noted: Rattus norvegicus, intravenous; for ED (10 min disappearance of contractions): extrapolated dose inducing 10 min of disappearance of the contractions, anaesthetized rats, read-out: ED10 min; for ED50: extrapolated dose inducing a reduction of the number of contractions >30% in 50% of treated rats, read-out: ED50 (frequency). Here is the method:
Female Sprague Dawley rats weighing 225-275 g (Crl: CDo BR, Charles River Italia) were used. The animals were housed with free access to food and water and were maintained on a forced 12 h alternating light-dark cycle at 22-24° C. for at least one week, except during the experiment. The activity on the rhythmic bladder voiding contractions was evaluated according to the method of Dray (J. Pharmacol. Methods, 13:157, 1985), with some modifications as in Guarneri (Pharmacol. Res., 27:173, 1993). Briefly, rats were anesthetized by subcutaneous injection of 1.25 g/kg (5 ml/kg) urethane, after which the urinary bladder was catheterized via the urethra using PE 50 polyethylene tubing filled with physiological saline. The catheter was tied in place with a ligature around the external urethral orifice and was connected with conventional pressure transducers (Statham P23 ID/P23 XL). […] The bladder was then filled via the recording catheter by incremental volumes of warm (37° C.) saline until reflex bladder voiding contractions occurred (usually 0.8-1.5 ml). For intravenous (i.v.) injection of bioactive compounds, PE 50 polyethylene tubing filled with physiological saline was inserted into the jugular vein. From the cystometrogram, the number of contractions recorded 15 min before (basal values) and after treatment, as well as the mean amplitude of these contractions (mean height of the peaks in mmHg) was evaluated.
Since most compounds produced an effect that was relatively rapid in onset and led to a complete cessation of bladder contractions, bioactivity was conveniently estimated by measuring the duration of bladder quiescence (i.e., the duration of time during which no contractions occurred). The number of animals tested showing a reduction in the number of contractions >30% of that observed in the basal period was also recorded.
Also computed in this manner were extrapolated doses which induced a reduction of the number of contractions of greater than 30% in 50% of treated rats (ED50, frequency) by the method of Bliss (Bliss C. I., Quart. J. Pharm. Pharmacol. 11, 192-216, 1938). After the suppressive effects of drug injection wore off, the height of the contractile peaks was compared with the height of the peaks previously recorded after the control intravenous administration of vehicle. The potency of the tested compounds (ED50 value: the extrapolated doses inducing a 30% reduction of amplitude of the contractions in 50% of treated rats) was evaluated on a quantal basis by the method of Bliss (Bliss C. I., Quart. J. Pharm. Pharmacol. 11, 192-216, 1938).

Experiment [2] addresses T1, human 5-HT1A serotonergic receptor (Homo sapiens, UniProt P08908).
T1 construct: expressed in transfected cells; host or cells: HeLa
T1 sequence (P08908 1-422): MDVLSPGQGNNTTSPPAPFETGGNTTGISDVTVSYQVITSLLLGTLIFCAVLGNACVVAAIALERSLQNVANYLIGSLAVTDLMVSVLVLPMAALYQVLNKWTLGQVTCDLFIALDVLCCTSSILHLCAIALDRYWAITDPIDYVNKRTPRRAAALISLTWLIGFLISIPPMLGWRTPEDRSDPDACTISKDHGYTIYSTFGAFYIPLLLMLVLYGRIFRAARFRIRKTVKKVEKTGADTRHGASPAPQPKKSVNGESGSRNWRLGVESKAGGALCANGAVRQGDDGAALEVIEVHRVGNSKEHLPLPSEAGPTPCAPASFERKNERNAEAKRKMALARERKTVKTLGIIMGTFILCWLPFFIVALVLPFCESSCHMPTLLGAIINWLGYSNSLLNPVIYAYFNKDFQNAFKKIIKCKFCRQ
The experiment is described as follows: Radioreceptor binding, recombinant human 5-HT1A receptors ([3H]8-OH-DPAT, HeLa membranes). As to conditions: recombinant human receptor, [3H]8-OH-DPAT; Ki from IC50 by Cheng & Prusoff; read-out: Binding affinity for the 5-HT1A receptor, Ki. In a few lines:
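Membranes from HeLa cells stably transfected with human 5-HT1A clone G-21 incubated 30 min at 30° C with 0.2-1 nM [3H]8-OH-DPAT in 50 mM Tris HCl pH 7.4, 2.5 mM MgCl2, 10 μM pargiline; nonspecific binding with 10 μM 5-HT. Filtration assay; IC50 from curve fitting converted to Ki by Cheng-Prusoff.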

The next experiment deals with urinary bladder. The experiment can be described thus: Cystometric parameters (cystometrogram) in conscious rats. To be noted: for BVC after treatment / MP after treatment: mean ± S.E.; for change in vivo at 0.3 mg/kg / change in vivo at 1 mg/kg: Rattus norvegicus, iv, 0.25 h, after vs before; for change in vivo at 0.3 mg/kg: i.v. 300 μg/kg; for change in vivo at 1 mg/kg: i.v. 1000 μg/kg. The format is in vivo, rat. Here is the method:
Male Sprague Dawley rats (Crl: CDo BR) weighing 250-350 g were used. The animals were housed with free access to food and water and maintained on a forced 12 h alternating light-dark cycle at 22-24° C. for at least one week, except during performance of the experiment. To quantify urodynamic parameters in conscious rats, cystometrographic studies were performed using procedures previously described (Guarneri et al., Pharmacol. Res., 24:175, 1991). […] An approximately 10 mm long midline incision was made in the shaved and cleaned abdominal wall. The urinary bladder was gently freed from adhering tissues, emptied, and then cannulated, via an incision at the dome, with a polyethylene cannula (Portex PP30), which was permanently sutured with silk thread. The cannula was exteriorized through a subcutaneous tunnel in the retroscapular area, where it was connected with a plastic adapter to avoid the risk of removal by the animal. For intravenous (i.v.) injection of test compounds, a PE 50 polyethylene tubing filled with physiological saline was inserted into the jugular vein and exteriorized in the retroscapular area. The rats were utilized exclusively one day after implantation. On the day of the experiment, the rats were placed in Bollman's cages, after a stabilization period of 20 min, and the free tip of the bladder catheter was connected through a T-shaped tube to a pressure transducer (Bentley T 800/Marb P 82) and to a peristaltic pump (Gilson minipuls 2) for a continuous infusion, at the constant rate of 0.1 ml/min, of saline solution into the urinary bladder. The intraluminal pressure signal during infusion was continuously recorded on a polygraph (Battaglia Rangoni KO 380 with ADCl/T amplifier).
Two urodynamic parameters were evaluated: bladder volume capacity (BVC) and micturition pressure (MP). BVC (in ml) is defined as the minimum volume infused after which detrusor contraction (followed by micturition) occurs. MP (in mm Hg) is defined as the maximal intravesical pressure induced by the contraction of detrusor during micturition. Basal BVC and MP values were calculated as the means of the first two recorded cystometrograms. At this point in the assay, the infusion was interrupted and the test compounds were administered. Fifteen minutes after intravenous administration two additional cystometrograms were recorded in each animal and the mean values of the two cystometrographic parameters were calculated. The statistical significance of the differences in urodynamic parameter values was evaluated by Student's t test for paired data.

`COc1ccccc1NCCN1CCN(c2cccc3[nH]ccc23)CC1` [Example 47, 1-[N-(2-methoxyphenyl)-2-aminoethyl]-4-(4-indolyl)piperazine]: in experiment [1], the ED (10 min disappearance of contractions) is 0.181 mg/kg and the ED50 was 0.02 mg/kg. Moreover, the Ki in experiment [2] stood at 2.33 nM.
Taken in the same sequence, the figures for `COc1ccccc1N1CCN(CCN(C(=O)C2CCCCC2)c2ccccc2N)CC1` [Example 27, 1-[N-(2-aminophenyl)-N-cyclohexylcarbonyl-2-aminoethyl]-4-(2-methoxyphenyl) piperazine] were 0.131 mg/kg, 0.013 mg/kg and 0.57 nM.
For `O=C(C1CCCCC1)N(CCN1CCN(c2cccc3[nH]ccc23)CC1)c1ccccc1OC(F)(F)F` [Example 51, 1-[N-cyclohexylcarbonyl-N-(2-trifluoromethoxyphenyl)-2-aminoethyl]-4-(4-indolyl)piperazine], in experiment [1], the ED (10 min disappearance of contractions) is 0.276 mg/kg and the ED50 is 0.2 mg/kg. In the experiment on urinary bladder (15 min after i.v. 300 μg/kg), this molecule displayed a BVC after treatment of 0.84 ± 0.14 mL and an MP after treatment of 73.7 ± 6.1 mmHg. In addition, in the experiment with urinary bladder (15 min after i.v. 1000 μg/kg), the BVC after treatment stood at 1.08 ± 0.09 mL and the MP after treatment worked out at 67.9 ± 5.6 mmHg. In the experiment with urinary bladder (read-out: BVC % of change), the change in vivo at 0.3 mg/kg turned out to be 27.7% and the change in vivo at 1 mg/kg amounted to 36.5%. In the experiment with urinary bladder (read-out: MP % of change), the change in vivo at 0.3 mg/kg was -7.9% and the change in vivo at 1 mg/kg was -13.3%. The Ki in experiment [2] is 0.24 nM.
Consider `O=C(C1CCCCC1)N(CCN1CCN(c2cccc3[nH]ccc23)CC1)c1ccccc1OCC(F)(F)F` [Example 69, 1-[N-cyclohexylcarbonyl-N-[2-(2,2,2-trifluoroethoxyphenyl)]-2-aminoethyl]-4-(4-indolyl)piperazine], for which, in experiment [1], the ED (10 min disappearance of contractions) is 0.06 mg/kg and the ED50 was 0.014 mg/kg. For the same molecule, the Ki in experiment [2] was determined as 0.32 nM.
Taken in the same sequence, the figures for `COc1ccccc1N1CCN(CCNc2ccccc2C(C)=O)CC1` [Example 11, 1-[N-(2-acetylphenyl)-2-aminoethyl]-4-(2-methoxyphenyl)piperazine] were 0.318 mg/kg, 0.04 mg/kg and 2.92 nM.
Regarding `COc1ccccc1N(CCN1CCN(c2cccc3[nH]ccc23)CC1)C(=O)C1CCCCC1` [Example 48, 1-[N-cyclohexylcarbonyl-N-(2-methoxyphenyl)-2-aminoethyl]-4-(4-indolyl)piperazine], in experiment [1], the ED (10 min disappearance of contractions) is 0.04 mg/kg and the ED50 is 0.014 mg/kg. The Ki in experiment [2] turned out to be 0.46 nM.
As for `COc1ccccc1N1CCN(CCNc2ccccc2C#N)CC1` [Example 10, 1-[N-(2-cyanophenyl)-2-aminoethyl]-4-(2-methoxyphenyl)piperazine], in experiment [1], the ED (10 min disappearance of contractions) is 0.122 mg/kg and the ED50 is 0.028 mg/kg. Also, the Ki in experiment [2] was determined as 17.2 nM.
The like results for `COc1cc(N)ccc1N1CCN(CCN(C(=O)C2CCCCC2)c2ccccc2OC(F)(F)F)CC1` [Example 56, 1-[N-cyclohexylcarbonyl-N-(2-trifluoromethoxyphenyl)-2-aminoethyl]-4-(4-amino-2-methoxyphenyl)piperazine] were, in that order, 0.061 mg/kg, 0.021 mg/kg and 2.13 nM.
Consider `COc1cc(NC(C)=O)ccc1N1CCN(CCN(C(=O)C2CCCCC2)c2ccccc2OC(F)(F)F)CC1` [Example 57, 1-[N-cyclohexylcarbonyl-N-(2-trifluoromethoxyphenyl)-2-aminoethyl]-4-(4-acetylamino-2-methoxyphenyl)piperazine], for which, in experiment [1], the ED (10 min disappearance of contractions) is 0.254 mg/kg and the ED50 is 0.252 mg/kg. For the same molecule, in experiment [2], the Ki turned out to be 0.74 nM.
